In patent US8158656B2, “2-indolinone derivatives as multi-target protein kinase inhibitors and histone deacetylase inhibitors” (Shenzhen Chipscreen Biosciences Ltd., priority 2008, dated 2012):

Assays:
HL60 = experiment: Tumor cell proliferation (MTS), HL60; assay type: cell-based; conditions: Homo sapiens, HL-60, HL60, 72 hours
Experimental: (§1) Measurement of in vivo cell proliferation:
(§2) Tumor cells were trypsinized and plated into 96-well plates at 3,000 per well and incubated in complete medium with 10% FBS for 24 hours. Compounds were added over a final concentration range of 100 μmol/L to 100 nmol/L in 0.1% DMSO and incubated for 72 hours in complete medium. The effects on proliferation were determined by addition of MTS reagent (Promega) according to the instruction, incubation for 2 hours at 37° C. in CO2 incubator, and record the absorbance at 490 nm using an ELISA plate reader.

Flt3 = target: T1, Flt3 (Homo sapiens, UniProt P36888); experiment: Flt3 kinase ELISA bioassay; assay type: biochemical; conditions: ELISA kinase assay, 200 μM ATP
T1 construct: purchased Cell Signaling
T1 sequence (P36888 27-993): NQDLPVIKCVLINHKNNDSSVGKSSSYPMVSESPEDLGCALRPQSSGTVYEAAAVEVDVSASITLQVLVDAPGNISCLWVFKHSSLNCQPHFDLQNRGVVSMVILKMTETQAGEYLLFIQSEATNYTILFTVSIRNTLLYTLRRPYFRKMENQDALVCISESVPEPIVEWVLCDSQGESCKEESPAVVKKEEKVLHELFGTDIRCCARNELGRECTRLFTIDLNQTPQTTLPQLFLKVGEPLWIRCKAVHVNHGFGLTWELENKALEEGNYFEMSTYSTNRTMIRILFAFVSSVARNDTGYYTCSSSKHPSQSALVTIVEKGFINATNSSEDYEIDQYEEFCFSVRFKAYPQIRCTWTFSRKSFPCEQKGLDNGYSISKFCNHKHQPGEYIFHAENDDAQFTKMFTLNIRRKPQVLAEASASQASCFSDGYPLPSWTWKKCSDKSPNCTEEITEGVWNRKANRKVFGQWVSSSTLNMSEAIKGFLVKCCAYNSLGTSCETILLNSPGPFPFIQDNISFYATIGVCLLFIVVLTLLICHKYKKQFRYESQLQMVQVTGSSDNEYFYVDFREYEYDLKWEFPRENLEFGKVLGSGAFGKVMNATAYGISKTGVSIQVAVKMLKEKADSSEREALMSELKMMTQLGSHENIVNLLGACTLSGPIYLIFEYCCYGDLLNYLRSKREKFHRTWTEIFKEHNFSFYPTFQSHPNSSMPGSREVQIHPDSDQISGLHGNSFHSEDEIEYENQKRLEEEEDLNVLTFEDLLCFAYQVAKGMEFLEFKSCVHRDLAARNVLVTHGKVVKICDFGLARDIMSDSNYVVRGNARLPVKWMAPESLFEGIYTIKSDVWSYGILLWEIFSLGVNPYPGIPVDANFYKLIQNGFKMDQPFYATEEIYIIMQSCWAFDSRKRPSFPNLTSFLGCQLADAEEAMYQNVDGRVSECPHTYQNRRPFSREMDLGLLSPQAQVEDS
Experimental: This assay is used to measure in vitro kinase activity of Flt3 in an ELISA assay.
• 1. Streptavidin coated, 96-well, white plate • 2. Phospho-Tyrosine Monoclonal Antibody (P-Tyr-100) (Cell Signaling) • 3. HRP-labeled anti-mouse IgG (Upstate) • 4. HTScan™ Tyrosine Kinase Buffer (4×) • 5. DTT (1000×. 1.25 M) • 6. ATP (10 mM) • 7. KDR (Tyr996) Biotinylated Peptide Substrate (Cell Signaling) • 8. Flt3 Kinase (recombinant, human) (Cell Signaling) • 9. Wash Buffer: 1× PBS, 0.05% Tween-20 (PBS/T) • 10. Bovine Serum Albumin (BSA) • 11. Stop Buffer: 50 mM EDTA pH 8 • 12. Enhanced chemiluminescence (ECL) (Amersham) Procedure for performing the assay in 96-well plate: • 1. Add 10 μl 10 mM ATP to 1.25 ml 6 μM substrate peptide. Dilute the mixture with dH20 to 2.5 ml to make 2× ATP/substrate cocktail ([ATP]=[…], [substrate]=3 μm). • 2. Immediately transfer enzyme from −80° C. to ice. Allow enzyme to thaw on ice. • 3. Microcentrifuge briefly at 4° C. to bring liquid to the bottom of the vial. Return immediately to ice. • 4. Add 10 μl of DTT (1.25 M) to 2.5 ml of 4× HTScan™ Tyrosine Kinase Buffer (240 mM HEPES pH 7.5, 20 mM MgCl2, 20 mM MnCl2, 12 μM Na3VO4) to make DTT/Kinase buffer. • 5. Transfer 1.25 ml of DTT/Kinase buffer to enzyme tube to make 4× reaction cocktail ([enzyme]=4 ng/μL in 4× reaction cocktail). • 6. Incubate 12.5 μl of the 4× reaction cocktail with 12.5 μl/well of prediluted compound of interest (usually around 10 μM) for 5 minutes at room temperature. • 7. Add 25 μl of 2× ATP/substrate cocktail to 25 μl/well preincubated reaction cocktail/compound. Final Assay Conditions for a 50 μl Reaction: • 60 mM HEPES pH 7.5 • 5 mM MgCl2 • 5 mM MnCl2 • 3 μM Na3VO4 • 1.25 mM DTT • […] • 1.5 μM peptide • 10 units Flt3 Kinase • 8. Incubate reaction plate at room temperature for 30 minutes. • 9. Add 50 μl/well Stop Buffer (50 mM EDTA, pH 8) to stop the reaction. • 10. Transfer 50 μl of each reaction and 50 μl dH2O/well to a 96-well streptavidincoated plate and incubate at room temperature for 60 minutes. • 11. Wash three times with 200 μl/well PBS/T • 12. Dilute primary antibody, Phospho-Tyrosine Monoclonal Antibody (P-Tyr-100), 1:1000 in PBS/T with 1% BSA. Add 100 μl/well of primary antibody. • 13. Incubate at room temperature for 60 minutes. • 14. Wash three times with 200 μl/well PBS/T • 15. Dilute HRP labeled anti-mouse IgG 1:500 in PBS/T with 1% BSA. Add 100 μl/well diluted antibody. • 16. Incubate at room temperature for 30 minutes. • 17. Wash five times with 200 μl/well PBS/T. • 18. Add 100 μl/well ECL Solution. • 19. Detect luminescence with appropriate Plate Reader.

Jurkat = experiment: Tumor cell proliferation (MTS), Jurkat; assay type: cell-based; conditions: Homo sapiens, 72 hours
Experimental: as §1, §2

HUVEC cells = experiment: VEGF ligand-dependent cell proliferation; assay type: cell-based; conditions: Homo sapiens, VEGF 165 50 ng/ml, 72 hours, MTS
Experimental: VEGF dependent cell proliferation:
HUVEC cells were plated into 96-well plates at 6,000 per well and incubated with serum-free medium for 2 hours. Compounds and VEGF 165 (50 ng/ml) were added and incubated for 72 hours in serum-free medium. The effects on proliferation were determined by addition of MTS reagent (Promega) according to the instruction, incubation for 2 hours at 37° C. in CO2 incubator, and record the absorbance at 490 nm using an ELISA plate reader.

Hut-78 = experiment: Tumor cell proliferation (MTS), Hut-78; assay type: cell-based; conditions: Homo sapiens, HuT78, Hut-78, 72 hours
Experimental: as §1, §2

GI50 (HL60): > 60 µM
IC50 (Flt3): 132 nM
GI50 (Jurkat): > 60 µM
GI50 (Hut-78): > 60 µM
Structure (SMILES): Cc1[nH]c(/C=C2\C(=O)Nc3ccc(F)cc32)c(C)c1C(=O)NCCCNc1ccc(C(=O)Nc2ccccc2N)cn1 [Example 6, (Z)-N-(2-aminophenyl)-6-(3-(2-((5-fluoro-2-oxoindolin-3-ylidene)methyl)-3,5-dimethyl-1H-pyrrole-4-carboxamido)propylamino)nicotinamide]
GI50 (HUVEC cells): 9 nM
